Data: ChEMBL document CHEMBL4270497, “Recent advances (2015-2016) in anticancer hybrids” (Eur J Med Chem, 2017)
In brackets after ≈: the same amount, converted by molar mass. Each block holds one compound with its values, some of them ahead of it.

Key:
A549 [1] = experiment: Cytotoxicity in human A549 cells assessed a reduction in cell viability incubated for 48 hrs by MTT assay; type: functional, cell-based; conditions: A549, 48 h
U-87 MG = experiment: Cytotoxicity in human U87MG cells assessed as reduction in cell viability incubated for 48 hrs by MTT assay; type: functional, cell-based, U-87MG ATCC
A549 [2] = experiment: Cytotoxicity in human A549 cells assessed as reduction in cell viability incubated for 48 hrs by MTT assay; type: functional, cell-based; conditions: A549, 48 h
PC-3 = experiment: Cytotoxicity in human PC3 cells assessed as reduction in cell viability incubated for 48 hrs by MTT assay; type: functional, cell-based; conditions: PC-3, 48 h
HT-29 [3] = experiment: Cytotoxicity in human HT-29 cells assessed as reduction in cell viability incubated for 48 hrs by MTT assay; type: functional, cell-based; conditions: HT-29, 48 h
[4] = target: Vascular endothelial growth factor receptor 1 (Homo sapiens, UniProt P17948); experiment: Inhibition of VEGFR1 (unknown origin) using KKKSPGEYVNIEFG substrate and [33P-g-ATP] incubated for 30 mins
Sequence of Vascular endothelial growth factor receptor 1 (P17948 whole entry): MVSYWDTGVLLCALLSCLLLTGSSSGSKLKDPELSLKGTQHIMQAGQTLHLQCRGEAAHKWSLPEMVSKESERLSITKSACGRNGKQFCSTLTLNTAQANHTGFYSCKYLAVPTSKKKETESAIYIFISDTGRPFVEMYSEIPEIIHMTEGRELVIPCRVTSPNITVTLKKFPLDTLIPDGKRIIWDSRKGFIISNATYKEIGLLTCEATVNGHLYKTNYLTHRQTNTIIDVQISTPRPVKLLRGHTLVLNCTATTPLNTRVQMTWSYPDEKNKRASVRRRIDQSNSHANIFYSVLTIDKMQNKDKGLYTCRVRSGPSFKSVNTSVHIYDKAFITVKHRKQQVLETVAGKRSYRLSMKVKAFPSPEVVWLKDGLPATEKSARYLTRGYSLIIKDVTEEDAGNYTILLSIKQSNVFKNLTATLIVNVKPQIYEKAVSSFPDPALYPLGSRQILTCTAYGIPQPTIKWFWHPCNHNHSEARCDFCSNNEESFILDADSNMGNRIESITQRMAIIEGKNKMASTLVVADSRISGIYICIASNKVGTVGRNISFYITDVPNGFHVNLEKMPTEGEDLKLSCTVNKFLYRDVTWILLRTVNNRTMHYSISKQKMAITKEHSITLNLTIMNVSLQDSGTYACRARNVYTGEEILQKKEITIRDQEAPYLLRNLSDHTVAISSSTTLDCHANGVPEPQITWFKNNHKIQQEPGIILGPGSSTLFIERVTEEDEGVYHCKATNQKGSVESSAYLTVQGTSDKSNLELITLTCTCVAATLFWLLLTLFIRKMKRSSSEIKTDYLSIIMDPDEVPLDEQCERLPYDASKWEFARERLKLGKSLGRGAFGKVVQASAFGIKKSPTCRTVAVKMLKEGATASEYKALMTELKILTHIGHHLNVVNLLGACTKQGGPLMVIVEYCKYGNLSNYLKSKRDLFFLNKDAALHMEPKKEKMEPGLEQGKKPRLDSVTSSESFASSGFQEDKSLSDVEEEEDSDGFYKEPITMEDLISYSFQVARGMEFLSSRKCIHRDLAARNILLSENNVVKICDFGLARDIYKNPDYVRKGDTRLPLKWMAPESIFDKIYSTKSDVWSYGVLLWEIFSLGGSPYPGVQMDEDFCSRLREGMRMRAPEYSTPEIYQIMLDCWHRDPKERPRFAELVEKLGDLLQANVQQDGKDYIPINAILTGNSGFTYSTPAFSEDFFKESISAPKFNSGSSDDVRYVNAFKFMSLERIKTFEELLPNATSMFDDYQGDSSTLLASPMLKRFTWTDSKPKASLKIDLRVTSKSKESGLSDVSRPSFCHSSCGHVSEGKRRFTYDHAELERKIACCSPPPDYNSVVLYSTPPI

HUVEC = experiment: Inhibition of VEGF-induced cell migration of HUVEC assessed as wound closure level at cytotoxic IC50 incubated for 24 hrs (reference value: 100%); type: functional, Homo sapiens; set-up: scale not given: the % may be the effect or the level left
MCF7 [5] = experiment: Anticancer activity against human MCF7 cells assessed as reduction in cell viability incubated for 48 hrs by MTT assay; type: functional, cell-based; conditions: MCF7, 48 h
HL-60 = experiment: Anticancer activity against human HL60 cells assessed as reduction in cell viability incubated for 48 hrs by MTT assay; type: functional, cell-based; conditions: HL-60, 48 h
LS180 = experiment: Inhibition of P-gp in human LS180 cells assessed as reduction in doxorubicin cytotoxic IC50 level at 50 uM by MTT assay; type: functional
A549 [6] = experiment: Antiproliferative activity against human A549 cells incubated for 48 hrs by MTT assay; type: functional, cell-based; conditions: A549, 48 h
HeLa = experiment: Antiproliferative activity against human HeLa cells incubated for 48 hrs by MTT assay; type: functional, cell-based
MCF7 [7] = experiment: Antiproliferative activity against human MCF7 cells incubated for 48 hrs by MTT assay; type: functional, cell-based; conditions: MCF7, 48 h
HCT-116 = experiment: Antiproliferative activity against human HCT116 cells incubated for 48 hrs by MTT assay; type: functional, cell-based; conditions: HCT-116, 48 h
HT-29 [8] = experiment: Antiproliferative activity against human HT-29 cells incubated for 48 hrs by MTT assay; type: functional, cell-based; conditions: HT-29, 48 h
HEK293 = experiment: Antiproliferative activity against HEK293 cells incubated for 48 hrs by MTT assay; type: cell-based; conditions: Homo sapiens, HEK293, 48 h
DU-145 = experiment: Antiproliferative activity against human DU145 cells incubated for 48 hrs by MTT assay; type: functional, cell-based; conditions: DU-145, 48 h
Tyrosinase = Tyrosinase (Agaricus bisporus, UniProt O42713); experiment: Inhibition of diphenolase activity of mushroom tyrosinase pre-incubated for 30 mins before L-DOPA substrate addition and measured after 1 min by spectrophotometric assay
Sequence of Tyrosinase (O42713 whole entry): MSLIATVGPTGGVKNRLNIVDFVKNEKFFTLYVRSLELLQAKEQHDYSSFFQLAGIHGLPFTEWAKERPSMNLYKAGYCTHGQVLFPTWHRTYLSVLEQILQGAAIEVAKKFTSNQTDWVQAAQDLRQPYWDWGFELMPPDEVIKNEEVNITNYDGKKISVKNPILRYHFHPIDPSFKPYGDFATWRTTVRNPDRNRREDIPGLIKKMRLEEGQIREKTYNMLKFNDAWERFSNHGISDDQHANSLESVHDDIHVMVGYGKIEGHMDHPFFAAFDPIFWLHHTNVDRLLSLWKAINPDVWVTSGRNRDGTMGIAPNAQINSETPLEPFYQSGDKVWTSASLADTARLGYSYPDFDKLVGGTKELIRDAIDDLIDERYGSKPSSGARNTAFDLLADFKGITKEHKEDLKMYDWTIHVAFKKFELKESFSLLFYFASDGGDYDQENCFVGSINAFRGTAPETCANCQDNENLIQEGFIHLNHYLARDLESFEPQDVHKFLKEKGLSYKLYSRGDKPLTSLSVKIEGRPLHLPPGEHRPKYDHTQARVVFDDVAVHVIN

[9] = test system: Panel NCI-60 (60 carcinoma cell lines); experiment: Growth inhibition of human NCI60 cells incubated for 48 hrs by SRB assay; type: functional
MDA-MB-231 = experiment: Growth inhibition of human MDA-MB-231 cells at 10 uM; type: functional; conditions: read-out: GI
A498 = experiment: Growth inhibition of human A498 cells at 10 uM; type: functional; conditions: read-out: GI
KB = experiment: Cytotoxicity in human KB cells assessed as reduction in cell viability; type: functional, cell-based

Structure (SMILES): COc1cc(-c2nc(/C=C/C(=O)c3ccc(F)cc3)cc3c2[nH]c2ccccc23)ccc1F
- IC50 (A549 [1]): < 10 µM

Structure (SMILES): COc1ccc(Cn2cc(C(=O)c3cn(-c4ccccc4)nc3-c3ccc(F)cc3)nn2)cc1OC
- IC50 (U-87 MG): 3.76 µM
- IC50 (A549 [2]): 2.13 µM
- IC50 (PC-3): 5.87 µM
- IC50 (HT-29 [3]): 2.54 µM

- IC50 [4]: 1.9 µM
Structure (SMILES): O=C(Nc1ccc(F)cc1)c1sccc1Nc1cccc2c1OCCO2
- Activity (HUVEC): 20%

- IC50 (MCF7 [5]): 16.2 µM
- IC50 (HL-60): 15.2 µM
Structure (SMILES): O=C(c1ccccc1)c1ccc2[nH]c(-c3c4ccccc4cc4ccccc34)nc2c1

Structure (SMILES): COc1ccc(-c2nn(-c3ccccc3)cc2C(=O)c2cn(Cc3ccc(OC)c(OC)c3)nn2)cc1
- IC50 (U-87 MG): 0.97 µM
- IC50 (A549 [2]): 2.24 µM
- IC50 (PC-3): 3.52 µM
- IC50 (HT-29 [3]): 1.78 µM

- IC50 [4]: 2.5 µM
Structure (SMILES): O=C(Nc1ccc(F)cc1)c1sccc1Nc1cccc2c1OCO2
- Ratio IC50 (LS180): 14
- Activity (HUVEC): 20%

Structure (SMILES): O=C(/C=C/c1cc2c([nH]c3ccccc32)c(-c2ccc(F)cc2)n1)c1ccc([N+](=O)[O-])cc1
- IC50 (A549 [1]): < 10 µM

- IC50 (A549 [6]): 0.51 to 1.29 µM
- IC50 (HeLa): 0.51 to 1.29 µM
- IC50 (MCF7 [7]): 0.51 to 1.29 µM
- IC50 (HCT-116): 0.51 to 1.29 µM
Structure (SMILES): COc1ccc(Nc2ncccc2C(=O)/C=C/Nc2ccc3[nH]ccc3c2)cc1

Structure (SMILES): COc1ccc(-c2nc(/C=C/C(=O)c3cc(OC)c(OC)c(OC)c3)cc3c2[nH]c2ccccc23)cc1OC
- IC50 (A549 [1]): < 10 µM

Structure (SMILES): COc1cc(-c2nc(/C=C/C(=O)c3ccc(N)cc3)cc3c2[nH]c2ccccc23)ccc1F
- IC50 (A549 [1]): < 10 µM

- IC50 (HT-29 [8]): 3.7 µM
- IC50 (A549 [6]): 4.1 µM
- IC50 (DU-145): 3.1 µM
Structure (SMILES): COc1ccc(Cn2cc(C(=O)c3cccnc3Nc3ccc(F)cc3)nn2)cc1OC
- IC50 (HEK293): 64.3 µM

- IC50 (Tyrosinase): 4.72 µM
Structure (SMILES): CN(C)c1ccc(C2CC(c3cc4ccccc4o3)=NN2C(=O)Nc2ccc(Cl)cc2)c2ccccc12 (configuration not stated)

Structure (SMILES): COc1ccc(-c2nc(/C=C/C(=O)c3ccc(F)cc3)cc3c2[nH]c2ccccc23)cc1OC
- IC50 (A549 [1]): < 10 µM

Structure (SMILES): CC(=O)N1N=C(c2ccc[nH]2)CC1c1cn(-c2ccccc2)nc1-c1cc2ccccc2o1 (configuration not stated)
- GI50 [9]: 1 to 2.71 µM

Structure (SMILES): COc1cc(-c2nc(/C=C/C(=O)c3ccc(F)cc3)cc3c2[nH]c2ccccc23)cc(OC)c1OC
- IC50 (A549 [1]): < 10 µM

- IC50 (HT-29 [8]): 3.1 µM
- IC50 (A549 [6]): 3.9 µM
- IC50 (DU-145): 3 µM
Structure (SMILES): COc1cc(Cn2cc(C(=O)c3cccnc3Nc3ccc(F)cc3)nn2)cc(OC)c1
- IC50 (HEK293): 75.2 µM

Structure (SMILES): COc1ccc(-c2nc(/C=C/C(=O)c3ccc(N)cc3)cc3c2[nH]c2ccccc23)cc1OC
- IC50 (A549 [1]): < 10 µM

Structure (SMILES): COc1cc(-c2nc(/C=C/C(=O)c3ccc(O)cc3)cc3c2[nH]c2ccccc23)cc(OC)c1OC
- IC50 (A549 [1]): < 10 µM

Structure (SMILES): Cc1cc(=O)oc2cc(Oc3nc(-c4ccccc4)cn4c(-c5ccccc5)cnc34)ccc12
- inhibition of growth at 10 µM (MDA-MB-231): 93%
- inhibition of growth at 10 µM (A498): 90%

Structure (SMILES): COc1ccc(C(=O)/C=C/c2cc3c([nH]c4ccccc43)c(-c3cc(OC)c(OC)c(OC)c3)n2)cc1
- IC50 (A549 [1]): < 10 µM

Structure (SMILES): O=C(/C=C/c1cc2c([nH]c3ccccc32)c(-c2ccc(F)cc2)n1)c1ccc(F)cc1
- IC50 (A549 [1]): < 10 µM

Structure (SMILES): CC[C@]1(O)C[C@H]2CN(CCc3c([nH]c4ccccc34)[C@@](C(=O)OC)(c3cc4c(cc3OC)N(C=O)[C@H]3[C@@](O)(C(=O)OC)[C@H](OC(C)=O)[C@]5(CC)C=CCN6CC[C@]43[C@@H]65)C2)C1 [VINCRISTINE]
- IC50 (KB): 0.46 µg/mL (≈ 0.558 µM)
